Laboratory results: the NIST ThermoML archive (doi:10.1016/j.jct.2011.07.018)
± gives the expanded uncertainty stated by the source.

Experiments:
[1] = 298.15 K; 101.33 kPa; Liquid; Vibrating tube method
[2] = excess molar enthalpy (molar enthalpy of mixing); xn = mol fraction of the nth substance listed; conditions: 298.15 K, 101 kPa, Liquid, isothermal titration calorimeter

Question: For `CCCCCCC(C)=O` [2-octanone], which mass density [1] is on record?
Answer: 814.32 ± 0.64 kg/m3

Question: Which excess molar enthalpy ([2]; x2 = 0.015) does the source give for `CCCCCCC(C)=O` [2-octanone] + CCCCCCCCO here?
Answer: 0.0217 ± 0.000478 kcal/mol

Question: And the excess molar enthalpy ([2]; x2 = 0.03)?
Answer: 0.0425 ± 0.000717 kcal/mol

Question: What about the excess molar enthalpy ([2]; x2 = 0.045) of the same molecule?
Answer: 0.0619 ± 0.000956 kcal/mol

Question: What about the excess molar enthalpy ([2]; x2 = 0.059) of the same molecule?
Answer: 0.0793 ± 0.0012 kcal/mol

Question: What about the excess molar enthalpy ([2]; x2 = 0.072) of the same molecule?
Answer: 0.0961 ± 0.0012 kcal/mol

Question: What about the excess molar enthalpy ([2]; x2 = 0.085) of the same molecule?
Answer: 0.111 ± 0.00143 kcal/mol

Question: And the excess molar enthalpy ([2]; x2 = 0.098)?
Answer: 0.126 ± 0.00167 kcal/mol

Question: And the excess molar enthalpy ([2]; x2 = 0.111)?
Answer: 0.139 ± 0.00191 kcal/mol

Question: And the excess molar enthalpy ([2]; x2 = 0.124)?
Answer: 0.152 ± 0.00191 kcal/mol

Question: And the excess molar enthalpy ([2]; x2 = 0.137)?
Answer: 0.165 ± 0.00215 kcal/mol

Question: And the excess molar enthalpy ([2]; x2 = 0.15)?
Answer: 0.177 ± 0.00239 kcal/mol

Question: And the excess molar enthalpy ([2]; x2 = 0.162)?
Answer: 0.188 ± 0.00239 kcal/mol

Question: What about the excess molar enthalpy ([2]; x2 = 0.174) of the same molecule?
Answer: 0.197 ± 0.00263 kcal/mol

Question: And the excess molar enthalpy ([2]; x2 = 0.186)?
Answer: 0.207 ± 0.00263 kcal/mol

Question: What about the excess molar enthalpy ([2]; x2 = 0.197) of the same molecule?
Answer: 0.215 ± 0.00263 kcal/mol

Question: What about the excess molar enthalpy ([2]; x2 = 0.206) of the same molecule?
Answer: 0.228 ± 0.00287 kcal/mol

Question: What about the excess molar enthalpy ([2]; x2 = 0.212) of the same molecule?
Answer: 0.233 ± 0.00287 kcal/mol

Question: What about the excess molar enthalpy ([2]; x2 = 0.218) of the same molecule?
Answer: 0.237 ± 0.00311 kcal/mol

Question: And the excess molar enthalpy ([2]; x2 = 0.225)?
Answer: 0.241 ± 0.00311 kcal/mol

Question: And the excess molar enthalpy ([2]; x2 = 0.232)?
Answer: 0.246 ± 0.00311 kcal/mol

Question: And the excess molar enthalpy ([2]; x2 = 0.24)?
Answer: 0.251 ± 0.00311 kcal/mol

Question: What about the excess molar enthalpy ([2]; x2 = 0.248) of the same molecule?
Answer: 0.256 ± 0.00335 kcal/mol

Question: And the excess molar enthalpy ([2]; x2 = 0.256)?
Answer: 0.261 ± 0.00335 kcal/mol

Question: What about the excess molar enthalpy ([2]; x2 = 0.266) of the same molecule?
Answer: 0.266 ± 0.00335 kcal/mol

Question: And the excess molar enthalpy ([2]; x2 = 0.276)?
Answer: 0.272 ± 0.00335 kcal/mol

Question: What about the excess molar enthalpy ([2]; x2 = 0.283) of the same molecule?
Answer: 0.275 ± 0.00359 kcal/mol

Question: And the excess molar enthalpy ([2]; x2 = 0.291)?
Answer: 0.279 ± 0.00359 kcal/mol

Question: And the excess molar enthalpy ([2]; x2 = 0.299)?
Answer: 0.283 ± 0.00359 kcal/mol

Question: What about the excess molar enthalpy ([2]; x2 = 0.308) of the same molecule?
Answer: 0.286 ± 0.00359 kcal/mol

Question: And the excess molar enthalpy ([2]; x2 = 0.317)?
Answer: 0.29 ± 0.00359 kcal/mol

Question: What about the excess molar enthalpy ([2]; x2 = 0.327) of the same molecule?
Answer: 0.294 ± 0.00359 kcal/mol

Question: What about the excess molar enthalpy ([2]; x2 = 0.337) of the same molecule?
Answer: 0.298 ± 0.00382 kcal/mol

Question: And the excess molar enthalpy ([2]; x2 = 0.348)?
Answer: 0.301 ± 0.00382 kcal/mol

Question: And the excess molar enthalpy ([2]; x2 = 0.36)?
Answer: 0.305 ± 0.00382 kcal/mol

Question: What about the excess molar enthalpy ([2]; x2 = 0.373) of the same molecule?
Answer: 0.308 ± 0.00382 kcal/mol

Question: What about the excess molar enthalpy ([2]; x2 = 0.383) of the same molecule?
Answer: 0.31 ± 0.00382 kcal/mol

Question: And the excess molar enthalpy ([2]; x2 = 0.393)?
Answer: 0.313 ± 0.00382 kcal/mol

Question: What about the excess molar enthalpy ([2]; x2 = 0.404) of the same molecule?
Answer: 0.315 ± 0.00406 kcal/mol

Question: What about the excess molar enthalpy ([2]; x2 = 0.415) of the same molecule?
Answer: 0.316 ± 0.00406 kcal/mol

Question: What about the excess molar enthalpy ([2]; x2 = 0.428) of the same molecule?
Answer: 0.318 ± 0.00406 kcal/mol

Question: What about the excess molar enthalpy ([2]; x2 = 0.44) of the same molecule?
Answer: 0.32 ± 0.00406 kcal/mol

Question: And the excess molar enthalpy ([2]; x2 = 0.454)?
Answer: 0.321 ± 0.00406 kcal/mol

Question: And the excess molar enthalpy ([2]; x2 = 0.469)?
Answer: 0.322 ± 0.00406 kcal/mol

Question: What about the excess molar enthalpy ([2]; x2 = 0.484) of the same molecule?
Answer: 0.322 ± 0.00406 kcal/mol

Question: What about the excess molar enthalpy ([2]; x2 = 0.496) of the same molecule?
Answer: 0.321 ± 0.00406 kcal/mol

Question: And the excess molar enthalpy ([2]; x2 = 0.509)?
Answer: 0.321 ± 0.00406 kcal/mol

Question: And the excess molar enthalpy ([2]; x2 = 0.523)?
Answer: 0.32 ± 0.00406 kcal/mol

Question: And the excess molar enthalpy ([2]; x2 = 0.537)?
Answer: 0.318 ± 0.00406 kcal/mol

Question: And the excess molar enthalpy ([2]; x2 = 0.552)?
Answer: 0.316 ± 0.00406 kcal/mol

Question: What about the excess molar enthalpy ([2]; x2 = 0.567) of the same molecule?
Answer: 0.313 ± 0.00382 kcal/mol

Question: And the excess molar enthalpy ([2]; x2 = 0.587)?
Answer: 0.31 ± 0.00382 kcal/mol

Question: And the excess molar enthalpy ([2]; x2 = 0.602)?
Answer: 0.305 ± 0.00382 kcal/mol

Question: And the excess molar enthalpy ([2]; x2 = 0.62)?
Answer: 0.3 ± 0.00382 kcal/mol

Question: What about the excess molar enthalpy ([2]; x2 = 0.64) of the same molecule?
Answer: 0.293 ± 0.00359 kcal/mol

Question: And the excess molar enthalpy ([2]; x2 = 0.657)?
Answer: 0.288 ± 0.00359 kcal/mol

Question: And the excess molar enthalpy ([2]; x2 = 0.674)?
Answer: 0.281 ± 0.00359 kcal/mol

Question: And the excess molar enthalpy ([2]; x2 = 0.692)?
Answer: 0.273 ± 0.00335 kcal/mol

Question: What about the excess molar enthalpy ([2]; x2 = 0.711) of the same molecule?
Answer: 0.263 ± 0.00335 kcal/mol

Question: And the excess molar enthalpy ([2]; x2 = 0.731)?
Answer: 0.252 ± 0.00311 kcal/mol

Question: What about the excess molar enthalpy ([2]; x2 = 0.752) of the same molecule?
Answer: 0.24 ± 0.00311 kcal/mol

Question: What about the excess molar enthalpy ([2]; x2 = 0.775) of the same molecule?
Answer: 0.226 ± 0.00287 kcal/mol

Question: What about the excess molar enthalpy ([2]; x2 = 0.799) of the same molecule?
Answer: 0.209 ± 0.00263 kcal/mol

Question: What about the excess molar enthalpy ([2]; x2 = 0.82) of the same molecule?
Answer: 0.194 ± 0.00239 kcal/mol

Question: What about the excess molar enthalpy ([2]; x2 = 0.841) of the same molecule?
Answer: 0.176 ± 0.00215 kcal/mol

Question: What about the excess molar enthalpy ([2]; x2 = 0.864) of the same molecule?
Answer: 0.156 ± 0.00191 kcal/mol

Question: And the excess molar enthalpy ([2]; x2 = 0.888)?
Answer: 0.133 ± 0.00167 kcal/mol

Question: And the excess molar enthalpy ([2]; x2 = 0.914)?
Answer: 0.107 ± 0.00143 kcal/mol

Question: And the excess molar enthalpy ([2]; x2 = 0.941)?
Answer: 0.0762 ± 0.0012 kcal/mol

Question: What about the excess molar enthalpy ([2]; x2 = 0.97) of the same molecule?
Answer: 0.0411 ± 0.000717 kcal/mol
